In patent US6794385B2, “Benzoxazine derivatives useful as integrin receptor antagonists” (Pharmacia & Upjohn, S.p.A., priority 2001, dated 2004):

Key:
human αvβ3 integrin = biological target: T1, human αvβ3 integrin (Homo sapiens, UniProt P05106+P06756); assay: αvβ3-vitronectin binding assay (solid phase); details: for IC50: inhibition of biotinylated vitronectin (5 nM) binding to coated αvβ3, read-out: αvβ3 (IC50 μmol); for ratio between αIIbβ3 and αvβ3 inhibiting activity: selectivity, αIIbβ3 IC50 over αvβ3 IC50
T1 construct: was purified from human placenta; from tissue; host or cells: human placenta
Procedure: A solid phase assay for the study of αvβ3-vitronectin binding was set up on the basis of already published methods (Wong et al., Molecular Pharmacology 50: 529-537, 1996; Brooks et al., Cell 85: 683-693, 1996). The human αvβ3 integrin was diluted into coating buffer (CB) containing 150 mM NaCl, 1 mM CaCl2, 1 mM MgCl2, 1 mM MnCl2, 20 mM TRIS, pH 7.4 at a concentration of 1.5 μg/ml. Into 96-well plates, 50 μl of the diluted integrin were added and allowed to bind to the plate walls overnight at 4° C. Next day, the assay plates were emptied and 100 μl of blocking buffer (CB buffer with 3% BSA) were added to each well for 45 min at 37° C. After the incubation, the plates were washed three times with 100 μl assay buffer (AB, CB buffer with 0.1% BSA). Serial 1:1 dilution (25 μl/well) of the test compounds were added to the plates, starting from 10 mM solutions in 100% DMSO diluted to 100 µM in AB. The binding reaction was started by addition (25 μl/well) of 10 nM biotinylated vitronectin (final concentration: 5 nM), and lasted 30 min at 37° C. The concentration range of the tested compounds spanned from 50 to 0.0005 μM. At the end of the co-incubation, the assay plates were washed as before and 70 μl of a 1:1000 AB dilution of peroxydase-conjugated streptavidin were added per well and were allowed to react for 45 min at 37° C. Then, the plates were washed as described and 50 μl of ready to use Turbo-TMB substrate for peroxydase were added to each well. After 30 minutes incubation at room temperature, the colour development was stopped with 50 μl sulphuric acid 0.38 M and the plates were read at a wavelength of 450 nm with a Packard plate reader. The values obtained were analyzed by four parameters curve fit in the computer program GraphPad Prism, after normalization by a maximum binding control (Bmax) detected in wells where no competitor was added, and a minimum binding control (NSB) detected in wells where no integrin was coated. Under standard assay conditions, A450 was never under 1.0 for Bmax, and around 0.15 for NSB.
Human vitronectin receptor ([…]v[…]3) was purified from human placenta (Pytela et al., Methods in Enzymology, 144: 475-489, 1987). Turbo-TMB was from PIERCE (34022). BSA (A4503), Vitronectin (V8379), RGD peptide (G4144) and all generic reagents were from SIGMA. Vitronectin was biotinylated according to the procedure indicated in the NHS biotinylation kit from PIERCE (21420). Horseradish peroxydase-streptavidin was from Amersham (RPN1231). 96-well plates were from Costar (#3690, EIA/RIA plate, ½ area flat bottom, high binding).

[1] = biological target: T2, αIIbβ3 integrin (human fibrinogen receptor) (Homo sapiens, UniProt P05106+P08514); assay: αIIbβ3-fibrinogen binding assay (solid phase); details: inhibition of biotinylated fibrinogen (10 nM) binding to coated αIIbβ3; read-out: αIIbβ3 (IC50 μmol)
T2 construct: was purified from human platelets; from tissue; host or cells: human platelets
Procedure: A solid phase assay for the study of αIIbβ3-fibrinogen binding was set up on according to the method described for αvβ3. αIIbβ3 integrin was diluted into coating buffer (CB) containing 150 mM NaCl, 1 mM CaCl2, 1 mM MgCl2, 1 mM MnCl2, 20 mM TRIS, pH 7.4 at a concentration of 3 μg/ml. Into 96-well plates, 50 μl of the diluted integrin were added and allowed to bind to the plate walls overnight at 4° C. Next day, the assay plates were emptied and 100 μl of blocking buffer (CB buffer with 3% BSA) were added to each well for 45 min at 37° C. […] Then, the plates were washed as described and 50 μl of ready to use Turbo-TMB substrate for peroxydase were added to each well. After 30 minutes incubation at room temperature, the colour development was stopped with 50 μl sulphuric acid 0.38 M and the plates were read at a wavelength of 450 nm with a Packard plate reader. The values obtained were analysed by four parameters curve fit with the computer program GraphPad Prism, after normalization by a maximum binding control (Bmax) detected in wells where no competitor was added, and a minimum binding control (NSB) detected in wells where no integrin was coated. […]

T1 sequence (P06756 31-889 limits assumed): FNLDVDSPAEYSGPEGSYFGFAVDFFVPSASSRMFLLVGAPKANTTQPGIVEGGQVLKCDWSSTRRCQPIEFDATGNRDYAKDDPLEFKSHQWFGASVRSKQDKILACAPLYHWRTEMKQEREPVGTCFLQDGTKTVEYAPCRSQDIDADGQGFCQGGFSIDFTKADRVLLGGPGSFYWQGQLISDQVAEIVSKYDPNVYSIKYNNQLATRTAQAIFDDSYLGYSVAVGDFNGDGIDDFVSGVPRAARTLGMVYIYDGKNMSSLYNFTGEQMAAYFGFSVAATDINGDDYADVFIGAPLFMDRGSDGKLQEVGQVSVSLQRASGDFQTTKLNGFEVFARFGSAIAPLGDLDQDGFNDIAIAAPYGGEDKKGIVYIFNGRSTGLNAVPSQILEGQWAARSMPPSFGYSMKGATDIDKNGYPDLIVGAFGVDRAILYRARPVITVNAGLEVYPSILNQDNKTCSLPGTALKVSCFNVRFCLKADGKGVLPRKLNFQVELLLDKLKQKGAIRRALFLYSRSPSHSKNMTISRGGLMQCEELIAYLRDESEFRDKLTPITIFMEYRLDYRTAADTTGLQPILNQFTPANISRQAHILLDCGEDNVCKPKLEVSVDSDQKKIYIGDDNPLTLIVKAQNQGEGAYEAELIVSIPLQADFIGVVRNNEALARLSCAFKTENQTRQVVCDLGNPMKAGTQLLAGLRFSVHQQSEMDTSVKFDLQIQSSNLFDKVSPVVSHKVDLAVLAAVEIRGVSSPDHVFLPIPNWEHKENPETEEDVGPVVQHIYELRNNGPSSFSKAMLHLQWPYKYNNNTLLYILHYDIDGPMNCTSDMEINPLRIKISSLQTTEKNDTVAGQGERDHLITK
T1 sequence (P06756 891-1048 partner limits assumed): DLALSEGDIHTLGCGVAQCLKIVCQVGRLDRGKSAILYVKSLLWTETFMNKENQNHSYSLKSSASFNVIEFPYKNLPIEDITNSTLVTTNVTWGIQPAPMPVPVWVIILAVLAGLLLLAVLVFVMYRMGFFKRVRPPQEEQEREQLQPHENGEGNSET
T1 sequence (P05106 27-788): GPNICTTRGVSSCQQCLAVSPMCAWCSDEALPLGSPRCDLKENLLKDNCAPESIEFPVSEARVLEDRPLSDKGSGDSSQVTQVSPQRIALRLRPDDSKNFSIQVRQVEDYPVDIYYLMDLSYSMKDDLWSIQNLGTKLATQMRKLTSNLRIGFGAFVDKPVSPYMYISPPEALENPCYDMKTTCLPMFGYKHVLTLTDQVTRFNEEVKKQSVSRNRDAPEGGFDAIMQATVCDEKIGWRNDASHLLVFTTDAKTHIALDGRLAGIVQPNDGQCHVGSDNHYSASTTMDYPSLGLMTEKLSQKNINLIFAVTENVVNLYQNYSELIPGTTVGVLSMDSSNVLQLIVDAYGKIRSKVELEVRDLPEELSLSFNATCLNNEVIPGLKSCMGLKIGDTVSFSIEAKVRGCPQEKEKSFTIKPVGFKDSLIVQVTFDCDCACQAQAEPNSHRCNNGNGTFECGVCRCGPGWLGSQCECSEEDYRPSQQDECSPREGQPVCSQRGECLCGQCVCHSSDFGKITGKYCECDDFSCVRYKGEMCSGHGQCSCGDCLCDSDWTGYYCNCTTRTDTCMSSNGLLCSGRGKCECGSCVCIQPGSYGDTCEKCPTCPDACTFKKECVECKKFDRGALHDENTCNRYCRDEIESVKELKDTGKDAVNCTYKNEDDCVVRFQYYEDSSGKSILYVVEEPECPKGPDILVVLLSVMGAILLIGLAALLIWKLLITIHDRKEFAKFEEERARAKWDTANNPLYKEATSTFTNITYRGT
T2 sequence (P08514 32-887 limits assumed): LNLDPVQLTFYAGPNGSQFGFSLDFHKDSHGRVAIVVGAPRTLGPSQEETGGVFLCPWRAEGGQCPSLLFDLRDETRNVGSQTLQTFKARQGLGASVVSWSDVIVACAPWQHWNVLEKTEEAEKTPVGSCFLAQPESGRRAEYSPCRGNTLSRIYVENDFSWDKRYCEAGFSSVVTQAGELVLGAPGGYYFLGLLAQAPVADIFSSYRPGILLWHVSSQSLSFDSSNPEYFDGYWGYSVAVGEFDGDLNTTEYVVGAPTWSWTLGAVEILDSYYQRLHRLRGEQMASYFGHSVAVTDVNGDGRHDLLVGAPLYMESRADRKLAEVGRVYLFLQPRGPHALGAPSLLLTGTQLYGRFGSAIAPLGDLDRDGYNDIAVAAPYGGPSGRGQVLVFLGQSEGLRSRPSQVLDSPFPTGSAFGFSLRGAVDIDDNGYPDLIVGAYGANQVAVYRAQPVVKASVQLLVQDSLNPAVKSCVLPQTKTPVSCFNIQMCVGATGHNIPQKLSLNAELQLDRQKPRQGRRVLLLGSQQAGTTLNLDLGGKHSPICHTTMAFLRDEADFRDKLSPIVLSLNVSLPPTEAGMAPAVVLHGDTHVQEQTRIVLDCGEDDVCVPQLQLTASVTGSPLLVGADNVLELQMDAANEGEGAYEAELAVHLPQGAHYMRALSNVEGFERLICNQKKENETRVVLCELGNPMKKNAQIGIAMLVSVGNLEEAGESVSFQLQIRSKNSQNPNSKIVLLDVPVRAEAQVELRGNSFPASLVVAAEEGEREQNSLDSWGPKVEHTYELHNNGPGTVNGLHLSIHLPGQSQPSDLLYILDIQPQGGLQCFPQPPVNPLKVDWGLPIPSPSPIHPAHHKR
T2 sequence (P08514 891-1039 partner limits assumed): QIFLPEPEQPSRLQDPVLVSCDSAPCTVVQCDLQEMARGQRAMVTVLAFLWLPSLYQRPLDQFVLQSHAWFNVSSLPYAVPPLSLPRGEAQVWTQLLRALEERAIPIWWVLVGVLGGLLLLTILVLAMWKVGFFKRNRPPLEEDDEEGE
T2 sequence (P05106 27-788): as the sequence (P05106 27-788) above

IC50 (human αvβ3 integrin) [µM]	ratio between αIIbβ3 and αvβ3 inhibiting activity (human αvβ3 integrin)	IC50 [1] [µM]	SMILES
0.044 ± 0.025	about 1,000	30	O=C(O)CC1CN(c2ccccc2)c2cc(NC(=O)CCNc3ccccn3)ccc2O1 (stereo not drawn) [Compound 1a, (4-phenyl-6-{[3-(2-pyridinylamino)propanoyl]amino}-3,4-dihydro-2H-1,4-benzoxazin-2-yl)acetic acid]
0.024 ± 0.009	about 1,000	27	O=C(O)CC1CN(c2ccccc2)c2cc(NC(=O)CCCNc3ccccn3)ccc2O1 (stereo not drawn) [Compound 1b, (4-phenyl-6-{[4-(2-pyridinylamino)butanoyl]amino}-3,4-dihydro-2H-1,4-benzoxazin-2-yl)acetic acid]
